{
  "source": "patent US20080200393A1",
  "about": "“Method and Composition For Treating Angiogenesis and For Preventing Cancer Progression and Metastasis Comprising a Prostate Secretory Protein (Psp94) Family Member” (Ambrillia Biopharma Inc., priority 2004, published 2008)",
  "key": {"MT1-MMP": {"test_system": "MT1-MMP", "assay": "MT1-MMP expression in U-87 cells", "format": "cell-based", "settings": "300 ug/ml"}, "RhoA": {"test_system": "RhoA", "assay": "RhoA gene and protein expression in U-87 cells (Western blot, RT-PCR)", "format": "cell-based", "settings": "U-87, 300 ug/ml, 48 hrs", "protocol": "Specific manipulation of the GTPase Rho activity can be used to suppress or enhance the organizational behaviour of endothelial cells as well as it can restrict cancer cells proliferation. In particular, RhoA mediates cell contractility by organizing actin filaments which consequently regulates cell migration. […] Tests were carried out in order to determine whether the PCK3145 derivative affected RhoA gene and protein expression. U-87 cells were either treated with the PCK3145 derivative (300 ug/ml, 48 hrs). Results of this experiment confirm that the PCK3145 derivative induced endogenous RhoA protein expression in U-87 cells as assessed by Western blotting (FIG. 11A, FIG. 11C)."}, "proMMP-2": {"test_system": "proMMP-2", "assay": "Gelatin zymography of HUVEC conditioned media", "format": "cell-based, Human", "protocol": "Zymography. Zymography is a technique generally used to analyze the activity of matrix metalloproteinases (MMPs) in biological samples. It involves the electrophoretic separation of proteins under denaturing (Sodium Dodecyl Sulfate (SDS)) but non-reducing conditions through a polyacrylamide gel containing gelatin (for example, 10% gel containing 1 mg/ml gelatin for MMP-9 and MMP-2 assays). The resolved proteins are re-natured by exchanging SDS with a non-ionic detergent such as Triton X-100 and the gel is incubated in an incubation buffer for activation of MMP-2 and MMP-9 (for example at 37° C. for 18 hrs). The gel is stained with Coomassie blue and the MMP-2 and MMP-9 bands may be visualized as clear bands against a blue background (i.e., the MMPs degrade the gelatin and are visualized as clear bands; pro MMP-2 is 68 kDa and pro-MMP-9 is 92 kDa). These bands can be quantified using densitometry. For example, prior to stimulation, quiescent HUVEC were serum-starved for 16 h in the presence or absence of PCK3145 or PD98059 and then stimulated with VEGF. The conditioned media were collected 24 h after stimulation, and clarified by centrifugation. Identical volume of conditioned media were mixed with non reducing Laemmli sample buffer and subjected to 7.5% SDS-polyacrylamide gels containing 1 mg/ml gelatin (Sigma). The gels were then incubated for 30 min at room temperature twice in 2.5% (v/v) Triton X-100 and rinsed five times in doubly distilled water. The gels were incubated at 37° C. for a further 18 h in 200 mM NaCl/5 mM CaCl2/0.02% (v/v) Brij-35/50 mM Tris/HCl buffer (pH 7.6), then stained with 0.1% Coomassie Brilliant Blue R-250, followed by destaining in 10% (v/v) acetic acid/30% (v/v) methanol in water. Gelatinolytic activity was detected as unstained bands on a blue background.\nThe effect of the PCK3145 derivative (SEQ ID NO.:7) on MMP extracellular levels was thus assessed by gelatin-zymography in the conditioned media of serum-starved HUVEC. After 16 hours of starvation, HUVEC were stimulated with VEGF in the presence or not of the PCK3145 derivative. […]"}, "VEGFR-2": {"target": "T1, VEGFR-2 (Homo sapiens, UniProt P35968)", "T1 construct": "host or cells: HUVEC", "T1 sequence (P35968 20-1356)": "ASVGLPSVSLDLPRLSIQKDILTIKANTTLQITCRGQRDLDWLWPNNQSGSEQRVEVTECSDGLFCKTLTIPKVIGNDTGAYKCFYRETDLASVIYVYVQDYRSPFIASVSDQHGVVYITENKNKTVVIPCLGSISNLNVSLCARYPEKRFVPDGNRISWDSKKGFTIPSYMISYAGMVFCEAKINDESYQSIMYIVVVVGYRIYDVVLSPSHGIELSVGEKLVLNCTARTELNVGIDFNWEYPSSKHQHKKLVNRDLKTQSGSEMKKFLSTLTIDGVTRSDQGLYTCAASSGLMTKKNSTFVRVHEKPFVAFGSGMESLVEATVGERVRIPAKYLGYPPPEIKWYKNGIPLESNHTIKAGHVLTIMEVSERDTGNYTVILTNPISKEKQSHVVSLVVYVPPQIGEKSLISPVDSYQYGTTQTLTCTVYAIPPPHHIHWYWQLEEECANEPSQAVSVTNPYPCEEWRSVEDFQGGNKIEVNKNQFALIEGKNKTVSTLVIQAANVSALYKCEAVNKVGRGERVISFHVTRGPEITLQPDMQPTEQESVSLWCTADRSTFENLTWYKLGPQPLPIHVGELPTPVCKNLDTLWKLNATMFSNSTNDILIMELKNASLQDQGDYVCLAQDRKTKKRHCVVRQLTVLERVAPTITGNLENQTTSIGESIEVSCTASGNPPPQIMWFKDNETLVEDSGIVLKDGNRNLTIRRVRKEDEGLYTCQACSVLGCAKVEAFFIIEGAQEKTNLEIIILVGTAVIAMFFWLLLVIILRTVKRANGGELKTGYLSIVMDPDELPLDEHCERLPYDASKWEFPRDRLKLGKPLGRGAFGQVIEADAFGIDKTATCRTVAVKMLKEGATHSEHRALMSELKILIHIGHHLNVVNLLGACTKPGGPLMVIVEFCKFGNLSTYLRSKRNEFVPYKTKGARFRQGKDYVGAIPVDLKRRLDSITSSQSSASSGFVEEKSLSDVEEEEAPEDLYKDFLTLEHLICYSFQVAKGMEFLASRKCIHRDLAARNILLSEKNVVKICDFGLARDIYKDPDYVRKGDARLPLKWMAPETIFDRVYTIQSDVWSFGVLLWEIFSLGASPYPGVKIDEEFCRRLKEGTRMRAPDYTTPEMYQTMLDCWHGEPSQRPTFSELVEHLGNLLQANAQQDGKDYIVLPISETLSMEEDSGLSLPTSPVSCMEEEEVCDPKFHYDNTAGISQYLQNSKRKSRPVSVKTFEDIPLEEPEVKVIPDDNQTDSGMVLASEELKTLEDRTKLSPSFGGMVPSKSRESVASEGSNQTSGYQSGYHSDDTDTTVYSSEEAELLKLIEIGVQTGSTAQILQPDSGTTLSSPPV", "assay": "VEGF-induced VEGFR-2 phosphorylation in HUVEC (immunoprecipitation, Western blot)", "format": "cell-based", "protocol": "Immunoprecipitation and immunoblotting procedures. After treatment, cells were washed once with phosphate-buffered saline (PBS) containing 1 mM sodium orthovanadate and were incubated in the same medium for 1 h at 4° C. The cells were solubilized on ice in lysis buffer (150 mM NaCl, 10 mM Tris-HCl, pH 7.4, 1 mM EDTA, 1 mM EGTA, 0.5% Nonidet P-40, 1% Triton X-100) containing 1 mM sodium orthovanadate. The cells were then scraped from the culture dishes and the resulting lysates were clarified by centrifugation at 10,000 g for 10 min; Protein concentrations were determined using the micro bicinchoninic acid method (Pierce). For immunoprecipitation studies, lysates were clarified by a 1 h incubation at 4° C. with a mixture of Protein A/Protein G Sepharose beads. After removal of the Sepharose beads by low-speed centrifugation, identical amounts of protein (200 μg) from each sample were transferred to fresh tubes and incubated in lysis buffer overnight at 4° C. in the presence of 2 μg/ml of specific antibodies. Immunocomplexes were collected by incubating the mixture with 25 μl (50% suspension) of Protein A- (rabbit primary antibody) or Protein G- (mouse primary antibody) Sepharose beads, for 2 h. Nonspecifically-bound material was removed by washing the beads three times in 1 ml of lysis buffer containing 1 mM sodium orthovanadate, and bound material was solubilized in 25 μl of two-fold concentrated Laemmli sample buffer (125 mM Tris-HCl (pH 6.8), 20% glycerol, 4% SDS, 10% β-mercaptoethanol, and 0.00125% bromphenol blue), boiled 5 min, and resolved by SDS-PAGE. […] The immunoreactive bands were quantified by scanning densitometry (Molecular Dynamics).\nThe multifunctionality of VEGF at the cellular level results from its ability to initiate a diverse, complex and integrated network of signaling pathways via its major receptor, VEGFR-2. […] After each treatment, equal amounts of protein were immunoprecipitated with anti-VEGFR-2 polyclonal antibodies and analysed by Western blotting."}},
  "note": "Where no end group is shown, it is not given here.",
  "data": [
    {"sequence": "EWQTDNCETCTCYET (cysteine pairing not given here) [PCK3145 derivative, PCK3145 derivative with acetylaminomethyl groups on the three cysteines]", "values": [
      {"measurement": "MT1-MMP expression", "setting": "MT1-MMP", "result": "slight increase"},
      {"measurement": "RhoA gene expression (RT-PCR)", "setting": "RhoA", "result": "paralleled that of its gene expression"},
      {"measurement": "endogenous RhoA protein expression (Western blotting)", "setting": "RhoA", "result": "induced"},
      {"measurement": "inhibition of VEGF-induced proMMP-2 secretion", "setting": "proMMP-2; HUVEC, 300 μg/ml", "result": "approximately 50%"},
      {"measurement": "downregulation of basal proMMP-2 levels in the extracellular media", "setting": "proMMP-2; serum-starved HUVEC, 24 hours treatment", "result": "approximately 35%"},
      {"measurement": "phosphorylation of VEGFR-2 induced by VEGF, dose dependence", "setting": "VEGFR-2", "result": "dose-dependent"},
      {"measurement": "phosphorylation of VEGFR-2 induced by VEGF", "setting": "VEGFR-2; 300 μg/ml, 24 h", "result": "inhibited"}
    ]}
  ]
}
